Reference: the supplement of paper PMC10307832

Tests used:
Assay in all cases: relative viability (nuclei count vs DMSO), 5 days (fraction); higher = more cells survive
Crizotinib = compound: C[C@@H](Oc1cc(-c2cnn(C3CCNCC3)c2)cnc1N)c1c(Cl)ccc(F)c1Cl [Crizotinib]
In short: (§1)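 Cells of lung cancer lines were placed in 1536-well plates and kept overnight at 37 °C. Pinning then delivered five library-drug doses (not always all listed), spaced by √10, onto plates anchored with vehicle, and the cells were left 5 days without changing medium. One step fixed, permeabilised and stained them with Hoechst, and MetaXpress counted nuclei in 4× images. Viability, as a median over plates, is treated-well nuclei divided by vehicle-well nuclei, with acceptance only at control CV below 25% and at least one doubling.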

Carfilzomib = compound: CC(C)C[C@H](NC(=O)[C@H](CCc1ccccc1)NC(=O)CN1CCOCC1)C(=O)N[C@@H](Cc1ccccc1)C(=O)N[C@@H](CC(C)C)C(=O)[C@@]1(C)CO1 [Carfilzomib]
In short: as §1

Olaparib = compound: O=C(c1cc(Cc2n[nH]c(=O)c3ccccc23)ccc1F)N1CCN(C(=O)C2CC2)CC1 [Olaparib]
In short: as §1

Olaparib + Pictilisib = compound: O=C(c1cc(Cc2n[nH]c(=O)c3ccccc23)ccc1F)N1CCN(C(=O)C2CC2)CC1 [Olaparib] + CS(=O)(=O)N1CCN(Cc2cc3nc(-c4cccc5[nH]ncc45)nc(N4CCOCC4)c3s2)CC1 [Pictilisib] (partner 1 µM)
In short: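 The day after seeding in 1536-well plates, lung cancer cell lines were treated by pin tool with a single drug, or with a fixed anchor-drug dose together with five library-drug doses (not always all listed) in √10 steps. After 5 days, a combined fix-and-stain solution (final 0.05% Triton X-100, 1% formaldehyde, 1 ug/ml Hoechst) was added. Nuclei counted on 4× images gave relative viability as treated counts over vehicle counts, reported as the median of duplicate plates.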

Cell Line	relative viability (Crizotinib; 0.01 µM)	relative viability (Crizotinib; 0.03162 µM)	relative viability (Crizotinib; 0.1 µM)	relative viability (Crizotinib; 0.3162 µM)	relative viability (Crizotinib; 1 µM)	relative viability (Crizotinib; 1 µM, anchor plate)	relative viability (Carfilzomib; 0.001 µM)	relative viability (Carfilzomib; 0.003162 µM)	relative viability (Carfilzomib; 0.01 µM)	relative viability (Carfilzomib; 0.03162 µM)	relative viability (Carfilzomib; 0.1 µM)	relative viability (Olaparib; 0.08 µM)	relative viability (Olaparib; 0.253 µM)	relative viability (Olaparib; 2.53 µM)	relative viability (Olaparib; 8 µM)	relative viability (Olaparib; 8 µM, anchor plate)	relative viability (Olaparib + Pictilisib; first compound 0.08 µM)	relative viability (Olaparib + Pictilisib; first compound 0.253 µM)	relative viability (Olaparib + Pictilisib; first compound 2.53 µM)	relative viability (Olaparib + Pictilisib; first compound 8 µM)
LXF-289	0.967	1.03	1.08	0.844	1.01	0.809	0.992	1.04	1.02	0.371	0.104	1.12	0.979	1.1	1.03	1.07	0.825	0.713	0.729	0.74
NCI-H23	0.808	1.1	1.04	–	0.904	0.546	0.847	1.14	0.856	0.172	0.161	1.23	0.84	0.804	0.517	0.344	0.684	0.365	0.397	0.292
NCI-H322M	0.778	–	1	0.922	0.955	0.93	0.911	1.07	1.04	0.961	0.376	1.06	0.888	0.98	0.815	0.745	0.507	0.522	0.521	0.485
NCI-H358	0.89	0.963	0.902	0.868	0.949	0.574	0.926	1.03	0.953	0.154	0.133	0.969	0.894	0.934	0.849	0.63	0.301	0.311	0.347	0.312
NCI-H441	0.99	0.941	0.947	–	1.02	0.726	1.2	1.19	0.432	0.151	0.118	1.13	1	0.942	0.76	0.525	0.676	0.387	0.552	0.456
NCI-H460	0.961	0.999	0.996	0.991	1.03	0.905	0.929	1.01	1	0.739	0.0357	1.08	0.915	0.895	0.657	0.441	0.404	0.319	0.342	0.27
NCI-H520	0.895	0.897	0.894	0.836	0.915	0.764	0.994	1.06	0.782	0.187	0.199	1.02	0.856	0.85	0.609	0.347	0.318	0.315	0.278	0.236
NCI-H596	1.02	1.04	1.09	0.98	0.967	0.989	0.951	0.949	0.95	0.697	0.222	0.987	0.86	0.919	0.792	0.711	0.417	0.381	0.45	0.394
NCI-H647	–	1.01	1.01	0.783	–	1.07	0.873	1.06	0.978	0.0791	0.038	1.08	0.862	0.97	0.879	0.542	0.66	–	0.486	0.515
NCI-H650	1.07	0.97	1.13	0.697	1.03	0.705	0.811	1.03	0.886	0.751	0.196	1.13	0.872	0.801	0.744	0.378	1.03	0.912	0.661	0.748
NCI-H661	0.933	0.95	0.945	1.06	1	0.993	0.986	1.05	1.02	0.995	0.535	1.02	0.924	0.925	0.836	0.753	0.431	0.399	0.439	0.386
NCI-H727	0.693	1.03	1	0.779	1.17	0.868	0.886	0.998	1.12	0.698	0.423	1.04	0.753	0.783	0.736	0.741	0.416	0.446	0.352	0.284
NCI-H838	0.86	–	0.972	0.888	0.928	0.852	0.982	1.05	0.951	0.875	0.151	1.02	0.903	0.955	0.945	0.767	0.452	0.439	0.519	0.408
NCI-H1299	0.976	1.02	1.02	–	0.976	0.932	1.03	1.02	1.02	0.577	0.158	1.08	0.981	1.01	0.995	0.968	0.815	0.805	0.8	0.582
NCI-H1355	0.983	1.01	1.05	0.797	0.981	1.05	0.876	1.04	1.01	0.946	0.18	1.02	0.962	0.981	0.91	0.754	0.537	0.397	0.408	0.444
NCI-H1395	0.819	0.943	1.05	0.811	0.739	–	0.764	1.08	0.669	0.437	0.34	1.01	0.806	0.663	0.538	0.479	0.78	0.639	0.575	0.534

Cell Line	relative viability (Crizotinib; 0.01 µM)	relative viability (Crizotinib; 0.03162 µM)	relative viability (Crizotinib; 0.1 µM)	relative viability (Crizotinib; 0.3162 µM)	relative viability (Crizotinib; 1 µM)	relative viability (Crizotinib; 1 µM, anchor plate)	relative viability (Carfilzomib; 0.001 µM)	relative viability (Carfilzomib; 0.003162 µM)	relative viability (Carfilzomib; 0.01 µM)	relative viability (Carfilzomib; 0.03162 µM)	relative viability (Carfilzomib; 0.1 µM)	relative viability (Olaparib; 0.08 µM)	relative viability (Olaparib; 0.253 µM)	relative viability (Olaparib; 2.53 µM)	relative viability (Olaparib; 8 µM)	relative viability (Olaparib; 8 µM, anchor plate)	relative viability (Olaparib + Pictilisib; first compound 0.08 µM)	relative viability (Olaparib + Pictilisib; first compound 0.253 µM)	relative viability (Olaparib + Pictilisib; first compound 2.53 µM)	relative viability (Olaparib + Pictilisib; first compound 8 µM)
NCI-H1437	0.951	1.03	0.996	0.884	1.08	–	0.952	1.07	1.04	0.884	0.358	1.02	0.873	0.927	0.814	0.617	0.373	0.395	0.501	0.381
NCI-H1563	0.887	0.995	0.908	1	1.06	0.843	0.945	1.08	1.03	0.934	0.613	1.16	0.902	1.01	0.912	–	0.614	0.645	0.695	0.635
NCI-H1650	0.842	0.993	0.969	0.891	0.931	1.02	0.986	0.975	0.341	0.141	0.186	1.21	0.848	0.785	0.871	0.812	0.866	0.523	0.572	0.647
NCI-H1651	0.954	0.994	0.938	0.991	1.08	0.884	0.964	1.01	0.879	0.327	0.12	0.934	0.902	0.755	0.494	0.188	0.62	0.562	0.599	0.331
NCI-H1666	0.952	1.02	0.985	0.971	0.987	1.04	1.02	1.07	1.06	0.981	0.437	0.985	0.916	0.821	0.838	0.738	0.637	0.33	0.488	0.52
NCI-H1703	0.794	1.08	0.918	0.968	1.14	0.728	0.839	1.22	0.439	0.132	0.128	1.1	0.826	0.983	0.974	0.453	0.299	0.346	0.275	0.27
NCI-H1734	0.913	–	0.886	–	0.955	0.672	0.972	1.04	0.904	0.354	0.124	1.06	0.935	0.862	0.726	0.635	0.469	0.471	0.419	0.336
NCI-H1755	0.943	0.987	–	0.944	1	0.863	1.01	1.02	1	1.01	0.788	1.08	0.89	1.05	0.939	0.881	0.553	0.383	0.405	0.338
NCI-H1792	0.886	1.01	1.09	–	0.909	0.997	0.827	0.962	0.957	0.658	0.388	0.923	0.725	0.773	0.605	0.419	0.265	0.241	0.265	0.217
NCI-H1915	–	0.99	1.02	–	1.02	0.908	0.954	1.08	0.871	1	0.184	1.02	0.892	0.779	0.559	0.269	0.928	0.845	0.746	0.473
NCI-H1944	0.879	0.992	0.907	1.02	0.893	1.1	0.907	1.03	0.927	1	0.343	0.921	0.806	0.656	0.646	0.419	0.363	0.319	0.328	0.351
NCI-H1975	0.884	0.992	0.967	0.921	1.02	0.979	0.946	1.05	0.808	0.146	0.137	0.985	0.919	0.912	0.901	0.789	0.309	0.27	0.284	0.266
NCI-H1993	0.859	0.978	0.807	0.798	0.753	0.872	0.943	0.999	1.01	0.818	0.426	0.909	0.956	0.978	1.01	1.12	0.827	0.839	0.719	0.869
NCI-H2009	0.953	1	1.05	0.986	1	1.04	1.07	1.05	1.02	0.44	0.0846	1.07	0.959	0.94	0.9	0.679	0.996	0.71	0.693	0.475
NCI-H2023	0.85	0.982	0.974	0.761	0.734	0.676	1.01	0.965	0.944	0.436	0.0808	0.98	0.944	0.901	0.685	0.478	0.286	0.195	0.245	0.275
NCI-H2085	0.936	1.03	0.977	1	0.975	0.882	1.02	1.03	0.962	0.547	0.323	1.16	0.912	0.983	0.959	0.769	0.468	0.433	0.427	0.368
